Results: patent US20240082208A1 (priority 2021, published 2024)

Experiments:
[1] = system: severe acute respiratory syndrome virus (SARS; SARS-CoV-2); set-up: species or system K18-ACE2 TG mice; settings: mouse, in vivo
dengue virus = assay: In vitro dengue virus infection of Vero cells, viral RNA titer by qRT-PCR; type: cell-based; settings: 40 μM, 48 hours after infection
Description: In order to evaluate the antiviral effect of irosustat in vitro, an additional experiment was performed in which Vero cells were infected with dengue virus. 16 hours before viral infection, cells were pre-treated with irosustat at a concentration of 0 μM, 20 μM or 40 μM, and 1 hour thereafter, the medium was replaced with a cell culture medium containing the drug. 48 hours after infection with the virus, the viral RNA titer of dengue virus in the cell culture medium was measured through qRT-PCR, and the results are shown in FIG. 3.

Compound: NS(=O)(=O)Oc1ccc2c3c(c(=O)oc2c1)CCCCC3 [irosustat, (6-oxo-8,9,10,11-tetrahydro-7H-cyclohepta[c]chromen-3-yl)sulfamate]
- viral titer in the lung tissue, lower than vehicle [1]: about 77%
- decrease of virus titer (dengue virus): ≥ 50%
